Measured values reported in patent US20190209509A1, “Hepatoprotective potential of Calebin A” (priority 2018, published 2019).

Columns and labels:
HepG2 cells [1] = test: Protection from alcohol induced toxicity, Sulphorhodamine B assay; type: cell-based, Human; settings: alcohol 1000 mM, 72 hours
Method: (§1) Human HepG2 cells (procured from NCCS, Pune) were cultured in Dulbecco's Modified Eagle Medium (DMEM) supplemented with 10% fetal bovine serum (FBS), 40 μgml^−1 gentamycin at 37° C. in an atmosphere of 5% CO2. When the cells reached 80-90% confluence, they were trypsinized and plated at 5000 cells per well in a 96-well microplate. After 24 hours of seeding, alcohol at a concentration of 1000 mM was added along with different non cytotoxic concentrations of Calebin. Sulphorhodamine B assay was performed after 72 hours of treatment to determine the number of viable cells and percentage protection was calculated (FIG. 1).

HepG2 cells [2] = test: Protection from acetaminophen (paracetamol) induced toxicity, Sulphorhodamine B assay; type: cell-based, Human; settings: 6.25 μM, acetaminophen 4 mM, 72 hours
Method: as §1, with “acetaminophen” for “alcohol”, “4” for “1000”, “2).” for “1).”

adipocytes = test: Glucose uptake assay in adipocytes; type: cell-based; settings: concentration printed as 3004, versus Metformin 200 μM
[3] = system: C2C12 myotubes (muscle cells); test: Glucose uptake assay (2-NBDG, flow cytometry) in muscle cells; type: cell-based; settings: concentration printed as 3004, versus Metformin 200 μM
Method: The skeletal muscle cell line C2C12 myoblasts (procured from ATCC) were maintained in DMEM supplemented with 10% Fetal Bovine Serum at 37° C. with 5% CO2. Twenty thousand cells per well were seeded in a 24 well plate. When the cells reached 80-90% confluence, differentiation was induced by replacing the growth medium with DMEM containing 1% horse serum. Experiments were performed in completely differentiated C2C12 myotubes after 4-5 days in differentiation medium. Cells were then treated with 0.5% BSA in low glucose media for 16 hours and washed with cold Krebs-Ringer phosphate buffer without glucose. Cells were then treated with different non cytotoxic concentrations of samples in low glucose DMEM media with or without insulin at a concentration of 0.1 μM for 30 minutes at 37° C. Cells were then washed with cold PBS and stained with 5 μM of a fluorescent D-glucose analog 2-[N-(7-nitrobenz-2-oxa-1,3-diazol-4-yl) amino]-2-deoxy-D-glucose (2-NBDG) for 15 minutes in dark followed by flow cytometric detection of fluorescence produced by the cells (FIG. 3)

COc1cc(/C=C/C(=O)COC(=O)/C=C/c2ccc(O)c(OC)c2)ccc1O [Calebin A]
percentage protection from alcohol induced toxicity (HepG2 cells [1]; 6.25 μM): about 14%
percentage protection from alcohol induced toxicity (HepG2 cells [1]; 12.5 μM): 30%
percentage protection from alcohol induced toxicity (HepG2 cells [1]; progressively higher concentration, printed 6.25 μM): 23%
percentage protection against acetaminophen induced toxicity (HepG2 cells [2]): about 15%
increase in glucose uptake (adipocytes): almost as effective as Metformin
increase in glucose uptake [3]: almost as effective as Metformin
